From ChEMBL document CHEMBL2346657, “Synthesis of novel 2-amino-4-(5'-substituted 2'-phenyl-1H-indol-3'-yl)-6-aryl-4H-pyran-3-carbonitrile derivatives as antimicrobial and antioxidant agents” (2013)
Activity calls are given as the source filed them. Unless noted, the calls are words filed in the database; no cut-off is given here.

test system: not listed separately; assay: Antioxidant activity assessed as metal chelating activity by measuring inhibition of ferrozine-Fe2+ complex formation at 25 to 100 ug/ml; type: functional; settings: not given

SMILES	Activity
Cc1ccc(C2=CC(c3c(-c4ccccc4)[nH]c4ccccc34)c3c(N)nc(=O)[nH]c3O2)cc1 (configuration not stated)	Active
Cc1ccc(C2=CC(c3c(-c4ccccc4)[nH]c4ccc(Cl)cc34)c3c(N)n[nH]c3O2)cc1 (configuration not stated)	Active

test system: not listed separately; assay: Antioxidant activity assessed as ferric ion reducing activity at 100 ug/ml by FRAP assay; type: functional; settings: not given

SMILES	Activity
Cc1ccc(C2=CC(c3c(-c4ccccc4)[nH]c4ccc(Cl)cc34)c3c(N)n[nH]c3O2)cc1 (configuration not stated)	Active

test system: Radical scavenging activity; assay: Antioxidant activity assessed as DPPH radical scavenging activity at 100 ug/ml; type: functional; settings: not given

SMILES	Activity
Cc1ccc(C2=CC(c3c(-c4ccccc4)[nH]c4ccccc34)c3c(N)nc(=O)[nH]c3O2)cc1 (configuration not stated)	Active

test system: Aspergillus flavus; assay: Antimicrobial activity against Aspergillus flavus MTCC 1973 at 500 ug/ml after 72 hrs by cup plate method; type: functional; settings: MTCC 1973, 72 h, read-out: IZ

SMILES	zone of inhibition at 500 µg/mL [mm]
Cc1ccc(C2=CC(c3c(-c4ccccc4)[nH]c4ccccc34)c3c(N)nc(=O)[nH]c3O2)cc1 (configuration not stated)	3
Cc1ccc(C2=CC(c3c(-c4ccccc4)[nH]c4ccc(Cl)cc34)c3c(N)n[nH]c3O2)cc1 (configuration not stated)	3

test system: Aspergillus flavus; assay: Antimicrobial activity against Aspergillus flavus MTCC 1973 at 750 ug/ml after 72 hrs by cup plate method; type: functional; settings: MTCC 1973, 72 h, read-out: IZ

SMILES	zone of inhibition at 750 µg/mL [mm]
Cc1ccc(C2=CC(c3c(-c4ccccc4)[nH]c4ccccc34)c3c(N)nc(=O)[nH]c3O2)cc1 (configuration not stated)	3
Cc1ccc(C2=CC(c3c(-c4ccccc4)[nH]c4ccc(Cl)cc34)c3c(N)n[nH]c3O2)cc1 (configuration not stated)	3

test system: Aspergillus flavus; assay: Antimicrobial activity against Aspergillus flavus MTCC 1973 at 1000 ug/ml after 72 hrs by cup plate method; type: functional; settings: MTCC 1973, 72 h, read-out: IZ

SMILES	zone of inhibition at 1000 µg/mL [mm]
Cc1ccc(C2=CC(c3c(-c4ccccc4)[nH]c4ccccc34)c3c(N)nc(=O)[nH]c3O2)cc1 (configuration not stated)	3
Cc1ccc(C2=CC(c3c(-c4ccccc4)[nH]c4ccc(Cl)cc34)c3c(N)n[nH]c3O2)cc1 (configuration not stated)	3

test system: Aspergillus terreus; assay: Antimicrobial activity against Aspergillus terreus MTCC 1782 at 500 ug/ml after 72 hrs by cup plate method; type: functional; settings: MTCC 1782, 72 h, read-out: IZ

SMILES	zone of inhibition at 500 µg/mL [mm]
Cc1ccc(C2=CC(c3c(-c4ccccc4)[nH]c4ccccc34)c3c(N)nc(=O)[nH]c3O2)cc1 (configuration not stated)	3
Cc1ccc(C2=CC(c3c(-c4ccccc4)[nH]c4ccc(Cl)cc34)c3c(N)n[nH]c3O2)cc1 (configuration not stated)	5

test system: Aspergillus terreus; assay: Antimicrobial activity against Aspergillus terreus MTCC 1782 at 750 ug/ml after 72 hrs by cup plate method; type: functional; settings: MTCC 1782, 72 h, read-out: IZ

SMILES	zone of inhibition at 750 µg/mL [mm]
Cc1ccc(C2=CC(c3c(-c4ccccc4)[nH]c4ccccc34)c3c(N)nc(=O)[nH]c3O2)cc1 (configuration not stated)	3
Cc1ccc(C2=CC(c3c(-c4ccccc4)[nH]c4ccc(Cl)cc34)c3c(N)n[nH]c3O2)cc1 (configuration not stated)	4

test system: Aspergillus terreus; assay: Antimicrobial activity against Aspergillus terreus MTCC 1782 at 1000 ug/ml after 72 hrs by cup plate method; type: functional; settings: MTCC 1782, 72 h, read-out: IZ

SMILES	zone of inhibition at 1000 µg/mL [mm]
Cc1ccc(C2=CC(c3c(-c4ccccc4)[nH]c4ccccc34)c3c(N)nc(=O)[nH]c3O2)cc1 (configuration not stated)	3
Cc1ccc(C2=CC(c3c(-c4ccccc4)[nH]c4ccc(Cl)cc34)c3c(N)n[nH]c3O2)cc1 (configuration not stated)	4

test system: Aspergillus oryzae; assay: Antimicrobial activity against Aspergillus oryzae MTCC 3567 at 500 ug/ml after 72 hrs by cup plate method; type: functional; settings: MTCC 3567, 72 h, read-out: IZ

SMILES	zone of inhibition at 500 µg/mL [mm]
Cc1ccc(C2=CC(c3c(-c4ccccc4)[nH]c4ccccc34)c3c(N)nc(=O)[nH]c3O2)cc1 (configuration not stated)	10
Cc1ccc(C2=CC(c3c(-c4ccccc4)[nH]c4ccc(Cl)cc34)c3c(N)n[nH]c3O2)cc1 (configuration not stated)	8

test system: Aspergillus oryzae; assay: Antimicrobial activity against Aspergillus oryzae MTCC 3567 at 750 ug/ml after 72 hrs by cup plate method; type: functional; settings: MTCC 3567, 72 h, read-out: IZ

SMILES	zone of inhibition at 750 µg/mL [mm]
Cc1ccc(C2=CC(c3c(-c4ccccc4)[nH]c4ccccc34)c3c(N)nc(=O)[nH]c3O2)cc1 (configuration not stated)	10
Cc1ccc(C2=CC(c3c(-c4ccccc4)[nH]c4ccc(Cl)cc34)c3c(N)n[nH]c3O2)cc1 (configuration not stated)	5

test system: Aspergillus oryzae; assay: Antimicrobial activity against Aspergillus oryzae MTCC 3567 at 1000 ug/ml after 72 hrs by cup plate method; type: functional; settings: MTCC 3567, 72 h, read-out: IZ

SMILES	zone of inhibition at 1000 µg/mL [mm]
Cc1ccc(C2=CC(c3c(-c4ccccc4)[nH]c4ccccc34)c3c(N)nc(=O)[nH]c3O2)cc1 (configuration not stated)	10
Cc1ccc(C2=CC(c3c(-c4ccccc4)[nH]c4ccc(Cl)cc34)c3c(N)n[nH]c3O2)cc1 (configuration not stated)	5

test system: Aspergillus niger; assay: Antimicrobial activity against Aspergillus niger MTCC 281 at 500 ug/ml after 72 hrs by cup plate method; type: functional; settings: MTCC 281, 72 h, read-out: IZ

SMILES	zone of inhibition at 500 µg/mL [mm]
Cc1ccc(C2=CC(c3c(-c4ccccc4)[nH]c4ccccc34)c3c(N)nc(=O)[nH]c3O2)cc1 (configuration not stated)	5
Cc1ccc(C2=CC(c3c(-c4ccccc4)[nH]c4ccc(Cl)cc34)c3c(N)n[nH]c3O2)cc1 (configuration not stated)	9

test system: Aspergillus niger; assay: Antimicrobial activity against Aspergillus niger MTCC 281 at 750 ug/ml after 72 hrs by cup plate method; type: functional; settings: MTCC 281, 72 h, read-out: IZ

SMILES	zone of inhibition at 750 µg/mL [mm]
Cc1ccc(C2=CC(c3c(-c4ccccc4)[nH]c4ccccc34)c3c(N)nc(=O)[nH]c3O2)cc1 (configuration not stated)	3
Cc1ccc(C2=CC(c3c(-c4ccccc4)[nH]c4ccc(Cl)cc34)c3c(N)n[nH]c3O2)cc1 (configuration not stated)	8

test system: Aspergillus niger; assay: Antimicrobial activity against Aspergillus niger MTCC 281 at 1000 ug/ml after 72 hrs by cup plate method; type: functional; settings: MTCC 281, 72 h, read-out: IZ

SMILES	zone of inhibition at 1000 µg/mL [mm]
Cc1ccc(C2=CC(c3c(-c4ccccc4)[nH]c4ccccc34)c3c(N)nc(=O)[nH]c3O2)cc1 (configuration not stated)	2
Cc1ccc(C2=CC(c3c(-c4ccccc4)[nH]c4ccc(Cl)cc34)c3c(N)n[nH]c3O2)cc1 (configuration not stated)	0

test system: Pseudomonas aeruginosa; assay: Antimicrobial activity against Pseudomonas aeruginosa MTCC 1688 at 500 ug/ml after 24 hrs by cup plate method; type: functional; settings: MTCC 1688, 24 h, read-out: IZ

SMILES	zone of inhibition at 500 µg/mL [mm]
Cc1ccc(C2=CC(c3c(-c4ccccc4)[nH]c4ccccc34)c3c(N)nc(=O)[nH]c3O2)cc1 (configuration not stated)	5
Cc1ccc(C2=CC(c3c(-c4ccccc4)[nH]c4ccc(Cl)cc34)c3c(N)n[nH]c3O2)cc1 (configuration not stated)	12

test system: Pseudomonas aeruginosa; assay: Antimicrobial activity against Pseudomonas aeruginosa MTCC 1688 at 750 ug/ml after 24 hrs by cup plate method; type: functional; settings: MTCC 1688, 24 h, read-out: IZ

SMILES	zone of inhibition at 750 µg/mL [mm]
Cc1ccc(C2=CC(c3c(-c4ccccc4)[nH]c4ccccc34)c3c(N)nc(=O)[nH]c3O2)cc1 (configuration not stated)	3
Cc1ccc(C2=CC(c3c(-c4ccccc4)[nH]c4ccc(Cl)cc34)c3c(N)n[nH]c3O2)cc1 (configuration not stated)	12

test system: Pseudomonas aeruginosa; assay: Antimicrobial activity against Pseudomonas aeruginosa MTCC 1688 at 1000 ug/ml after 24 hrs by cup plate method; type: functional; settings: MTCC 1688, 24 h, read-out: IZ

SMILES	zone of inhibition at 1000 µg/mL [mm]
Cc1ccc(C2=CC(c3c(-c4ccccc4)[nH]c4ccccc34)c3c(N)nc(=O)[nH]c3O2)cc1 (configuration not stated)	3
Cc1ccc(C2=CC(c3c(-c4ccccc4)[nH]c4ccc(Cl)cc34)c3c(N)n[nH]c3O2)cc1 (configuration not stated)	13

test system: Klebsiella pneumoniae; assay: Antimicrobial activity against Klebsiella pneumoniae NCTC 13368 at 500 ug/ml after 24 hrs by cup plate method; type: functional; settings: NCTC 13368, 24 h, read-out: IZ

SMILES	zone of inhibition at 500 µg/mL [mm]
Cc1ccc(C2=CC(c3c(-c4ccccc4)[nH]c4ccccc34)c3c(N)nc(=O)[nH]c3O2)cc1 (configuration not stated)	6
Cc1ccc(C2=CC(c3c(-c4ccccc4)[nH]c4ccc(Cl)cc34)c3c(N)n[nH]c3O2)cc1 (configuration not stated)	12

test system: Klebsiella pneumoniae; assay: Antimicrobial activity against Klebsiella pneumoniae NCTC 13368 at 750 ug/ml after 24 hrs by cup plate method; type: functional; settings: NCTC 13368, 24 h, read-out: IZ

SMILES	zone of inhibition at 750 µg/mL [mm]
Cc1ccc(C2=CC(c3c(-c4ccccc4)[nH]c4ccccc34)c3c(N)nc(=O)[nH]c3O2)cc1 (configuration not stated)	4
Cc1ccc(C2=CC(c3c(-c4ccccc4)[nH]c4ccc(Cl)cc34)c3c(N)n[nH]c3O2)cc1 (configuration not stated)	12

test system: Klebsiella pneumoniae; assay: Antimicrobial activity against Klebsiella pneumoniae NCTC 13368 at 1000 ug/ml after 24 hrs by cup plate method; type: functional; settings: NCTC 13368, 24 h, read-out: IZ

SMILES	zone of inhibition at 1000 µg/mL [mm]
Cc1ccc(C2=CC(c3c(-c4ccccc4)[nH]c4ccccc34)c3c(N)nc(=O)[nH]c3O2)cc1 (configuration not stated)	3
Cc1ccc(C2=CC(c3c(-c4ccccc4)[nH]c4ccc(Cl)cc34)c3c(N)n[nH]c3O2)cc1 (configuration not stated)	12

test system: Staphylococcus aureus; assay: Antimicrobial activity against Staphylococcus aureus ATCC 29513 at 500 ug/ml after 24 hrs by cup plate method; type: functional; settings: ATCC 29513, 24 h, read-out: IZ

SMILES	zone of inhibition at 500 µg/mL [mm]
Cc1ccc(C2=CC(c3c(-c4ccccc4)[nH]c4ccccc34)c3c(N)nc(=O)[nH]c3O2)cc1 (configuration not stated)	5
Cc1ccc(C2=CC(c3c(-c4ccccc4)[nH]c4ccc(Cl)cc34)c3c(N)n[nH]c3O2)cc1 (configuration not stated)	14

test system: Staphylococcus aureus; assay: Antimicrobial activity against Staphylococcus aureus ATCC 29513 at 750 ug/ml after 24 hrs by cup plate method; type: functional; settings: ATCC 29513, 24 h, read-out: IZ

SMILES	zone of inhibition at 750 µg/mL [mm]
Cc1ccc(C2=CC(c3c(-c4ccccc4)[nH]c4ccccc34)c3c(N)nc(=O)[nH]c3O2)cc1 (configuration not stated)	3
Cc1ccc(C2=CC(c3c(-c4ccccc4)[nH]c4ccc(Cl)cc34)c3c(N)n[nH]c3O2)cc1 (configuration not stated)	14

test system: Staphylococcus aureus; assay: Antimicrobial activity against Staphylococcus aureus ATCC 29513 at 1000 ug/ml after 24 hrs by cup plate method; type: functional; settings: ATCC 29513, 24 h, read-out: IZ

SMILES	zone of inhibition at 1000 µg/mL [mm]
Cc1ccc(C2=CC(c3c(-c4ccccc4)[nH]c4ccccc34)c3c(N)nc(=O)[nH]c3O2)cc1 (configuration not stated)	5
Cc1ccc(C2=CC(c3c(-c4ccccc4)[nH]c4ccc(Cl)cc34)c3c(N)n[nH]c3O2)cc1 (configuration not stated)	14

test system: Escherichia coli; assay: Antimicrobial activity against Escherichia coli MTCC 723 at 500 ug/ml after 24 hrs by cup plate method; type: functional; settings: MTCC 723, 24 h, read-out: IZ

SMILES	zone of inhibition at 500 µg/mL [mm]
Cc1ccc(C2=CC(c3c(-c4ccccc4)[nH]c4ccccc34)c3c(N)nc(=O)[nH]c3O2)cc1 (configuration not stated)	7
Cc1ccc(C2=CC(c3c(-c4ccccc4)[nH]c4ccc(Cl)cc34)c3c(N)n[nH]c3O2)cc1 (configuration not stated)	4

test system: Escherichia coli; assay: Antimicrobial activity against Escherichia coli MTCC 723 at 750 ug/ml after 24 hrs by cup plate method; type: functional; settings: MTCC 723, 24 h, read-out: IZ

SMILES	zone of inhibition at 750 µg/mL [mm]
Cc1ccc(C2=CC(c3c(-c4ccccc4)[nH]c4ccccc34)c3c(N)nc(=O)[nH]c3O2)cc1 (configuration not stated)	7
Cc1ccc(C2=CC(c3c(-c4ccccc4)[nH]c4ccc(Cl)cc34)c3c(N)n[nH]c3O2)cc1 (configuration not stated)	2

test system: Escherichia coli; assay: Antimicrobial activity against Escherichia coli MTCC 723 at 1000 ug/ml after 24 hrs by cup plate method; type: functional; settings: MTCC 723, 24 h, read-out: IZ

SMILES	zone of inhibition at 1000 µg/mL [mm]
Cc1ccc(C2=CC(c3c(-c4ccccc4)[nH]c4ccccc34)c3c(N)nc(=O)[nH]c3O2)cc1 (configuration not stated)	8
Cc1ccc(C2=CC(c3c(-c4ccccc4)[nH]c4ccc(Cl)cc34)c3c(N)n[nH]c3O2)cc1 (configuration not stated)	2
